Measured values published in ChEMBL document CHEMBL1155939, “Baicalin, a prodrug able to reach the CNS, is a prolyl oligopeptidase inhibitor” (Bioorg Med Chem, 2008).

What follows are molecules tested against T1, Prolyl endopeptidase (Homo sapiens, UniProt P48147) (assay: Inhibition of human brain prolyl oligopeptidase expressed in Escherichia coli).
T1 sequence (P48147 whole entry): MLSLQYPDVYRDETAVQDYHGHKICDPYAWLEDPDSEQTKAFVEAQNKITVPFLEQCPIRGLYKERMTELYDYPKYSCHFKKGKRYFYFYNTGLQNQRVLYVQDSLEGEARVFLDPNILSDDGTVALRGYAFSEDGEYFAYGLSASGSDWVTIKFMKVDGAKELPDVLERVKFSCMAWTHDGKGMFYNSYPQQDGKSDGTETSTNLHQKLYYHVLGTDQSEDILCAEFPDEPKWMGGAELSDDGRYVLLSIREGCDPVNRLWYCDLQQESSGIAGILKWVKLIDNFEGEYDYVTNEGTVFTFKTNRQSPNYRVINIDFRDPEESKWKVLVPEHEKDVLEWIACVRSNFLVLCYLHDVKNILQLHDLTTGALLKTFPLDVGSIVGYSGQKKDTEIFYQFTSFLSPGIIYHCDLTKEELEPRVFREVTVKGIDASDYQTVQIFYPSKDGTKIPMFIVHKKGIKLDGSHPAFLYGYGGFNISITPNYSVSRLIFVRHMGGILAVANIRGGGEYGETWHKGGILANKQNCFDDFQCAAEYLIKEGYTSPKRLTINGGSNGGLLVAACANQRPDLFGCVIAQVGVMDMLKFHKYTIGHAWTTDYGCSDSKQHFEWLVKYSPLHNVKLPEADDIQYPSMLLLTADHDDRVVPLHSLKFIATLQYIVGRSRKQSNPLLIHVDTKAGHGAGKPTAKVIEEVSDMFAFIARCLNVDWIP

`O=c1c(O)c(-c2ccccc2)oc2cc(O)ccc12` [3,7-DIHYDROXYFLAVONE] and `O=c1c(O)c(-c2ccc(O)cc2)oc2cc(O)cc(O)c12` [KAEMPFEROL] cannot be ordered by IC50: greater than 200 µM for the first, greater than 200 µM for the second.

Compared with `O=c1c(O)c(-c2ccc(O)c(O)c2)oc2cc(O)cc(O)c12` [QUERCETIN], `C[C@@H]1O[C@@H](OC[C@H]2O[C@@H](Oc3c(-c4ccc(O)c(O)c4)oc4cc(O)cc(O)c4c3=O)[C@H](O)[C@@H](O)[C@@H]2O)[C@H](O)[C@H](O)[C@H]1O` [RUTIN] is higher in IC50: 13 µM for the first, greater than 200 µM for the second. The first is the more potent here.
